From patent US9351980B2, “Di-aspirin derivatives” (The University of Wolverhampton, priority 2010, dated 2016)

Legend:
colorectal cells = details: previously reported; cited from earlier work
[1] = human subjects given analgesic doses of aspirin; cited from earlier work
MAC13 tumour = assay: Tumour volume in MAC 13 tumour bearing mice; type: in vivo; details: MAC13 tumour bearing NMRI mice, 1 mg/kg dissolved in PBS (FIG. 7)
Experimental: NMRI mice were treated with MAC13 cells (5×10^6) sub cut in their flanks (Hussey H J, Bibby […]; British J. of Cancer, 73, 1187-1192, 1996), were treated with example compounds. Once the tumour was established the tumour was dissected and small fragments re-transplanted into more mice. […] The mice were monitored daily-weight, food and water consumption and tumour size was recorded using calipers. The experiment ended when the control mouse tumours started to ulcerate.

[2] = tested on: SW480 colon carcinoma cell line, HCT-116 colon cancer cell line, MDA-231MB breast cancer cell line; assay: MTT titration assay (cell viability, 24 hours) on colon versus breast cancer cell lines; type: cell-based
Experimental: In the examples, assays mentioned are standard cytotoxicity assays and cell cultures used are prepared under standard conditions. The MTT assay referred to is MTT [3-(4,5-Dimethylthiazol-2-yl)-2,5-diphenyltetrazolium-bromide] assay (Mosmann T; J Immunol Methods 65: 55-63, 1983).
In FIG. 2, the in vitro toxicity of BCS, compound 508 of table 1, was investigated in further detail by titration against the SW480 colon carcinoma cell line and the DNA mismatch repair deficient HCT-116 colon cancer cell line and the MDA-231MB breast cancer cell line again utilising the MTT assay as described previously. The concentration-effect relationship for the three different cells lines is given in FIG. 2 (error bars indicate mean+/−S.D.). All experiments were performed in triplicate. For clarity, carrier molecule (DMSO) toxicity of the equivalent concentration utilised is also shown.

SW480 cell line = assay: MTT in vitro cytotoxicity assay on SW480 cells; type: cell-based
Experimental: The MTT assay was utilised with a 24 hour incubation period of cell exposure to the compound. […] Experiments were carried out in triplicate; error bars indicate standard deviation.
The carrier molecule utilised (DMSO) in these experiments to prepare stock solutions was buffered with Tris-HCl buffer pH8.0 (0.5M) to mitigate against any pH changes caused by the addition of compounds to cell culture medium. All data shown were normalised to cells exposed only to buffered carrier molecule.
The result shown is the average of three independent experiments (error bars indicate mean+/−SEM). For comparative purposes, compound toxicity is shown alongside the equivalent concentration of salicylic acid (SA) and aspirin (as tested using the MTT assay with a 72 hour incubation of SW480 cells with compound). The carrier molecule utilised in these experiments was DMSO (dimethyl sulphoxide); all data shown were normalised to cells exposed only to carrier molecule.

Structure (SMILES)	toxicity to colorectal cells in vitro (colorectal cells)	salicylate levels achievable in serum [1] [mM]	tumour growth (MAC13 tumour)	specific toxicity to colorectal cancer cells ([2]; MTT titration, 24 hours, SW480, HCT-116 versus MDA-231MB)	selectivity for SW480 compared with MDA-231-MB cells ([2]; cell viability assay, colon carcinoma versus breast cancer-derived cell line)	toxicity in comparison to aspirin (SW480 cell line; MTT assay, equivalent concentration of aspirin (FIG. 3, 48 hour incubation))	specificity against the cell line derived from a colon cancer (SW480 cell line; SW480 versus MCF-7 and U373MG (FIG. 1), MTT)
CC(=O)Oc1ccccc1C(=O)O [Aspirin, acetylsalicylic acid]	exhibit toxicity	> 1					
O=C(CCC(=O)Oc1ccccc1C(=O)O)Oc1ccccc1C(=O)O [Compound 508, bis(2-carboxyphenyl) succinate]			decrease in tumour growth	specifically toxic to colorectal cancer cells	significantly more toxic to SW480 colorectal cancer cells than to MDA-231-MB cells	more toxic in comparison to aspirin	retains a degree of specificity
O=C(/C=C/C(=O)Oc1ccccc1C(=O)O)Oc1ccccc1C(=O)O [Compound 517, fumaroyldiaspirin]			decrease in tumour growth				
